Reference: PMC6727617, “Exploiting Designed Oxidase–Peroxygenase Mutual Benefit System for Asymmetric Cascade Reactions” (Journal of the American Chemical Society, 2019)

Key:
OleTJE = target: T1, OleTJE (Jeotgalicoccus sp. ATCC 8456, UniProt E9NSU2); experiment: GC of styrene / styrene oxide formation in coupled reaction with purified P450-BM3 SO5; format: biochemical; conditions: no external H2O2, H2O2 from SO5 uncoupling
T1 construct: gene JEM45_03820; recombinant; purified enzyme or lyophilized cell-free lysate powder
T1 sequence (E9NSU2 1-422): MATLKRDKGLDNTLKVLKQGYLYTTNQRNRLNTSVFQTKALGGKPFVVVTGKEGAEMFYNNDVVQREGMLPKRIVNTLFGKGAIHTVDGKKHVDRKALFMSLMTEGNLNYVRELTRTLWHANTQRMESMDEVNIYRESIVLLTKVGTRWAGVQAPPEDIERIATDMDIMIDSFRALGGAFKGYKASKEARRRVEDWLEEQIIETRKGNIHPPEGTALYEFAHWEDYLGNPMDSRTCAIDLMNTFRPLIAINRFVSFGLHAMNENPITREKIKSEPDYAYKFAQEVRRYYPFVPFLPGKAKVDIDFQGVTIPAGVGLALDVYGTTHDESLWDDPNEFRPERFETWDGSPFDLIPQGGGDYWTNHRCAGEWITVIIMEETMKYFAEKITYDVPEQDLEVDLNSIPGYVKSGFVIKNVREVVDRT

ANEH = target: T2, ANEH (Aspergillus niger, UniProt Q9UR30); experiment: one-pot cascade with lyophilized lysate powders, conversion to diol; format: biochemical; conditions: 50 mM PBS pH 8.0, 300 mM NaCl; epoxide formed in situ by P450-BM3 SO5
T2 construct: gene hyl1; recombinant, co-expressed with P450-BM3 SO5 under the same T7 promoter; lyophilized cell-free lysate powder
T2 sequence (Q9UR30 1-398): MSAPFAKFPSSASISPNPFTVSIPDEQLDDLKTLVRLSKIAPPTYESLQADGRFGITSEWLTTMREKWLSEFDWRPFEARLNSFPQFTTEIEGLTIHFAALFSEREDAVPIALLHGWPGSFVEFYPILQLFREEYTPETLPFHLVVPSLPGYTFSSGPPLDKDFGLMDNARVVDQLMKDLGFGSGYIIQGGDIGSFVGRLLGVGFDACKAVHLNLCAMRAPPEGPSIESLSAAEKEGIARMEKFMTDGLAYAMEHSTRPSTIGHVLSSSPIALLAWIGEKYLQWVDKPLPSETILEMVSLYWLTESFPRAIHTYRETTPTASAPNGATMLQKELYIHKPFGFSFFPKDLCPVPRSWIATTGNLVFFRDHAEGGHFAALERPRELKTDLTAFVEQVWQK

`C=Cc1ccccc1` [styrene] was tested, and the “GC of styrene / styrene oxide formation in coupled reaction with purified P450-B” value (OleTJE) was “OleT-Catalyzed Reaction B Supplies the Necessary Styrene from 3-Phenyl Propionic Acid”.
In the case of `c1ccc([C@@H]2CO2)cc1` [(R)-styrene oxide], the “one-pot cascade with lyophilized lysate powders, conversion to diol” value (ANEH) is reported as “selective hydrolytic ring-opening of the respective epoxide catalyzed by the epoxide hydrolase”.
In the case of `O=C(O)CCc1ccccc1` [1a, 3-phenyl propionic acid], the “GC of styrene / styrene oxide formation in coupled reaction with purified P450-B” value (OleTJE) is reported as “purified OleTJE was mixed with the purified SO5 variant, and tested in the model reaction”.
